# According to ChEMBL document CHEMBL1125669, “Synthesis of potential dual-acting radiation sensitizer antineoplastic agents: 2,2-dimethylphosphoraziridines containing 2-nitroimidazoles or other electron-affinic moieties” (1991):
# Columns and labels:
# Format in all cases: functional
# Mus musculus [1] = assay: In vivo antitumor activity against P-388 leukemia in CDF1 mice at 32 mg or 84 umol by ip administration expressed as median survival time of drug treated mice/median survival time of control mice x100
# Mus musculus [2] = assay: In vivo antitumor activity against P-388 leukemia in CDF1 mice at 128 mg or 335 umol by ip administration expressed as average wt. change determined between day 0 and day 6 of experiment
# Mus musculus [3] = assay: In vivo antitumor activity against P-388 leukemia in CDF1 mice at 32 mg or 84 umol by ip administration expressed as average wt. change determined between day 0 and day 6 of experiment
# Mus musculus [4] = assay: In vivo antitumor activity against P-388 leukemia in CDF1 mice at 16 mg or 42 umol by ip administration expressed as average wt. change determined between day 0 and day 6 of experiment
# Mus musculus [5] = assay: In vivo antitumor activity against P-388 leukemia in CDF1 mice at 64 mg or 167 umol by ip administration expressed as median survival time of drug treated mice/median survival time of control mice x100
# Mus musculus [6] = assay: In vivo antitumor activity against P-388 leukemia in CDF1 mice at 256 mg or 670 umol by ip administration expressed as median survival time of drug treated mice/median survival time of control mice x100
# Mus musculus [7] = assay: In vivo antitumor activity against P-388 leukemia in CDF1 mice at 64 mg or 167 umol by ip administration expressed as average wt. change determined between day 0 and day 6 of experiment
# Mus musculus [8] = assay: In vivo antitumor activity against P-388 leukemia in CDF1 mice at 8 mg or 21 umol by ip administration expressed as median survival time of drug treated mice/median survival time of control mice x100
# Mus musculus [9] = assay: In vivo antitumor activity against P-388 leukemia in CDF1 mice at 16 mg or 42 umol by ip administration expressed as median survival time of drug treated mice/median survival time of control mice x100
# Mus musculus [10] = assay: In vivo antitumor activity against P-388 leukemia in CDF1 mice at 8 mg or 21 umol by ip administration expressed as average wt. change determined between day 0 and day 6 of experiment
# Mus musculus [11] = assay: In vivo antitumor activity against P-388 leukemia in CDF1 mice at 256 mg or 670 umol by ip administration expressed as average wt. change determined between day 0 and day 6 of experiment
# Mus musculus [12] = assay: In vivo antitumor activity against P-388 leukemia in CDF1 mice at 128 mg or 335 umol by ip administration expressed as median survival time of drug treated mice/median survival time of control mice x100
# Mus musculus [13] = assay: In vivo antitumor activity against P-388 leukemia in CDF1 mice at 100 mg or 363 umol by ip administration expressed as average wt. change determined between day 0 and day 6 of experiment
# Mus musculus [14] = assay: In vivo antitumor activity against P-388 leukemia in CDF1 mice at 400 mg or 1453 umol by ip administration expressed as average wt. change determined between day 0 and day 6 of experiment
# Mus musculus [15] = assay: In vivo antitumor activity against P-388 leukemia in CDF1 mice at 50 mg or 182 umol by ip administration expressed as average wt. change determined between day 0 and day 6 of experiment
# Mus musculus [16] = assay: In vivo antitumor activity against P-388 leukemia in CDF1 mice at 200 mg or 727 umol by ip administration expressed as median survival time of drug treated mice/median survival time of control mice x100
# Mus musculus [17] = assay: In vivo antitumor activity against P-388 leukemia in CDF1 mice at 400 mg or 1453 umol by ip administration expressed as median survival time of drug treated mice/median survival time of control mice x100
# Mus musculus [18] = assay: In vivo antitumor activity against P-388 leukemia in CDF1 mice at 200 mg or 727 umol by ip administration expressed as average wt. change determined between day 0 and day 6 of experiment
# Mus musculus [19] = assay: In vivo antitumor activity against P-388 leukemia in CDF1 mice at 50 mg or 182 umol by ip administration expressed as median survival time of drug treated mice/median survival time of control mice x100
# Mus musculus [20] = assay: In vivo antitumor activity against P-388 leukemia in CDF1 mice at 100 mg or 363 umol by ip administration expressed as median survival time of drug treated mice/median survival time of control mice x100
structure (smiles),measurement,setting,value
CC1(C)CN1P(=O)(NC(=O)OCc1ccc([N+](=O)[O-])cc1)N1CC1(C)C (configuration not stated),T/C,Mus musculus [1],106%
same,Average weight change,Mus musculus [2],2 g
same,Average weight change,Mus musculus [3],2.1 g
same,Average weight change,Mus musculus [4],1.2 g
same,T/C,Mus musculus [5],113%
same,T/C,Mus musculus [6],119%
same,Average weight change,Mus musculus [7],1.4 g
same,T/C,Mus musculus [8],113%
same,T/C,Mus musculus [9],113%
same,Average weight change,Mus musculus [10],1.4 g
same,Average weight change,Mus musculus [11],0.6 g
same,T/C,Mus musculus [12],113%
CC1(C)CN1P(=O)(NC(=O)OCc1ccccc1[N+](=O)[O-])N1CC1(C)C (configuration not stated),T/C,Mus musculus [1],118%
same,Average weight change,Mus musculus [2],-1.1 g
same,Average weight change,Mus musculus [3],-0.4 g
same,Average weight change,Mus musculus [4],0 g
same,T/C,Mus musculus [5],129%
same,T/C,Mus musculus [6],153%
same,Average weight change,Mus musculus [7],-1.1 g
same,T/C,Mus musculus [8],106%
same,T/C,Mus musculus [9],106%
same,Average weight change,Mus musculus [10],0.6 g
same,Average weight change,Mus musculus [11],-1.5 g
same,T/C,Mus musculus [12],141%
CCOC(=O)NP(=O)(N1CC1(C)C)N1CC1(C)C (configuration not stated) [METUREDEPA],Average weight change,Mus musculus [13],-0.4 g
same,Average weight change,Mus musculus [14],-1.3 g
same,Average weight change,Mus musculus [15],-0.7 g
same,T/C,Mus musculus [16],231%
same,T/C,Mus musculus [17],244%
same,Average weight change,Mus musculus [18],-0.2 g
same,T/C,Mus musculus [19],163%
same,T/C,Mus musculus [20],181%
